The numbers were not newly measured in patent publication US20090226517A1, “PHARMACEUTICAL FORMULATIONS COMPRISING DULOXETINE” (priority 2008, published 2009), which cites them from elsewhere.

The conditions of the data set: background statement; limited aqueous solubility.

For `CNCC[C@H](Oc1cccc2ccccc12)c1cccs1` [Duloxetine], the BCS class result is reported as “BCS class II”.
